The target of this assay is SiaT from S. aureus (Staphylococcus aureus, UniProt A0A0H2XJ46). Kind of assay: [3H]Neu5Ac uptake in proteoliposomes, SaSiaT. The settings on record: for type of inhibition: SaSiaT, Lineweaver–Burk plot. As for the experimental part:
To gain further insights into the molecular mechanisms, we investigated the direct effects of compounds 3e and 3f on the transport activity in proteoliposomes reconstituted with PmSiaT and SaSiaT. A kinetic analysis was performed by measuring the concentration-dependent uptake of [^3H]Neu5Ac in the presence of two different concentrations of the inhibitors 3f (Figure 5a,c) or 3e (Figure 5b,d).
Figure 5 Kinetic analysis of the inhibition of recombinant SiaT from P. mirabilis (A,B) and S. aureus (C,D) reconstituted in proteoliposomes and [^3H]Neu5Ac efflux in proteoliposomes (E,F). (a–d) Data were plotted according to Lineweaver–Burk as a reciprocal transport rate vs reciprocal Neu5Ac concentration. The transport rate was measured, in 5 min, by adding [^3H] Neu5Ac at the indicated concentrations to proteoliposomes containing 20 mM K^+-gluconate in the presence of valinomycin as described in the Supporting Information. [(A,B) P. mirabilis SiaT]; (A) compound 3f 0.25 μM (●) or 0.75 μM (□) was added in comparison to samples without inhibitor (○). (B) Compound 3e 12 μM (●) or 40 μM (□) was added in comparison to samples without an inhibitor (○). [(C,D) S. aureus SiaT]. (C) Compound 3f 80 μM (●) or 200 μM (□) was added in comparison to samples without an inhibitor (○). (D) Compound 3e 5 μM (●) or 12 μM (□) was added in comparison to samples without an inhibitor (○). Results are mean ± s.d. from four independent experiments (n = 4). […] Data are calculated as the percent of residual activity with respect to the control sample (efflux time zero). The results are the means ± s.d. of three independent experiments.
The purified SiaT from P. mirabilis and S. aureus was reconstituted by using the detergent removal procedure with the batchwise method previously pointed out.[16],[21] In brief, 2.5 μg or 5 μg of P. mirabilis and S. aureus SiaT, respectively, were mixed with 120 μL 10% C12E8, 100 μL of 10% egg yolk phospholipids (w/v, in the form of sonicated liposomes as previously described),[43] […]
For uptake experiments, 600 μL of proteoliposomes were loaded onto a Sephadex G-75 column (0.7 cm diameter × 15 cm height), pre-equilibrated with 20 mM Hepes Tris pH 7.0 with 40 mM sucrose to balance the internal osmolarity. […] For kinetic measurement, the initial transport rate was measured by stopping the reaction after 5 min, that is, within the initial linear range of [^3H]-Neu5Ac uptake into the proteoliposomes previously described. […] In both uptake and efflux experiments, the transport assay was terminated by loading each proteoliposome sample (100 μL) on a Sephadex G-75 column (0.6 cm diameter × 8 cm height) to remove the external radioactivity. Proteoliposomes were eluted with 1 mL of 50 mM NaCl and collected in a 4 mL of scintillation mixture, vortexed and counted.

Molecules are shown by their SMILES.

Chain of SiaT from S. aureus (A0A0H2XJ46 entry or part of it): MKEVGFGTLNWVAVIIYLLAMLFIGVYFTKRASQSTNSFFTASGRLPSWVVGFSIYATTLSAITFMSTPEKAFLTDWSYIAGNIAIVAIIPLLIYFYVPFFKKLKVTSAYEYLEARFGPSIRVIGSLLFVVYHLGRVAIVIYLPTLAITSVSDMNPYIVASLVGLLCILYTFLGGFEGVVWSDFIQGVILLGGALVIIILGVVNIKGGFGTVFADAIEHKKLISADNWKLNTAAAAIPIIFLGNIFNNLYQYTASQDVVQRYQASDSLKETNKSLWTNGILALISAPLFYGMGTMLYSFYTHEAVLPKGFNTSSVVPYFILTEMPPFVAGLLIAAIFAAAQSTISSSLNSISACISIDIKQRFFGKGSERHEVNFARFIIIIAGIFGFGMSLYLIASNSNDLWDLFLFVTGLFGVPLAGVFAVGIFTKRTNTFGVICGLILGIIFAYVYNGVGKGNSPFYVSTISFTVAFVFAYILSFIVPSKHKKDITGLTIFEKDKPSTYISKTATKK

Regarding `CC(=O)NC1C(OCc2cc(F)cc(F)c2)CC(O)(C(=O)O)OC1C(O)C(O)CO` (stereo not shown) [Compound 3e], the affinity corresponds to a Ki of 2.8 ± 0.5 µM and the type of inhibition entry is “competitive inhibitors”.

With `CC(=O)NC1C(OCc2cc(Br)cc(Br)c2)CC(O)(C(=O)O)OC1C(O)C(O)CO` (stereo not shown) [Compound 3f], the inhibition constant (Ki) is 53.6 ± 11.1 µM and the type of inhibition result was “competitive inhibitors”.

The term Ki denotes the dissociation constant of the complex between target and ligand, obtained from inhibition or displacement. Higher therefore signals lower affinity.
